Test results taken from the supplement of paper PMC10307832.

Key:
Assay in all cases: relative viability (nuclei count vs DMSO), 5 days (fraction); higher = more cells survive
[1] = compound: COC1=CC=C(C=C1)CN2C=CC3=C2C=C(C=C3)C(=O)NO + Cc1nc(Nc2ncc(C(=O)Nc3c(C)cccc3Cl)s2)cc(N2CCN(CCO)CC2)n1 [Dasatinib] (partner 0.075 µM)
Method in brief: (§1)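 After 5 days of treatment, lung cancer cells in 1536-well plates were fixed and stained in a single step (final 0.05% Triton X-100, 1% formaldehyde, 1 ug/ml Hoechst) and their nuclei counted on 4× images. Treatment had been applied by pin tool the day after seeding as one drug alone or as a fixed anchor-drug dose with five library-drug doses (not always all listed) in √10 steps. Relative viability is the nuclei count of treated wells divided by that of vehicle wells, and values are medians of duplicate plates.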

Veliparib + Foretinib = compound: C[C@]1(c2nc3c(C(N)=O)cccc3[nH]2)CCCN1 [Veliparib] + COc1cc2c(Oc3ccc(NC(=O)C4(C(=O)Nc5ccc(F)cc5)CC4)cc3F)ccnc2cc1OCCCN1CCOCC1 [Foretinib] (partner 0.25 µM)
Method in brief: as §1

[2] = compound: COC1=CC=C(C=C1)CN2C=CC3=C2C=C(C=C3)C(=O)NO + CC(C)C[C@H](NC(=O)[C@H](Cc1ccccc1)NC(=O)c1cnccn1)B(O)O [Bortezomib] (partner 0.002 µM)
Method in brief: as §1

Veliparib + Trametinib = compound: C[C@]1(c2nc3c(C(N)=O)cccc3[nH]2)CCCN1 [Veliparib] + CC(=O)Nc1cccc(-n2c(=O)n(C3CC3)c(=O)c3c(Nc4ccc(I)cc4F)n(C)c(=O)c(C)c32)c1 [Trametinib] (partner 0.02 µM)
Method in brief: as §1

Cell Line | relative viability ([1]; first compound 0.08 µM) | relative viability ([1]; first compound 0.253 µM) | relative viability ([1]; first compound 0.8 µM) | relative viability ([1]; first compound 2.53 µM) | relative viability ([1]; first compound 8 µM) | relative viability (Veliparib + Foretinib; first compound 0.02 µM) | relative viability (Veliparib + Foretinib; first compound 0.06325 µM) | relative viability (Veliparib + Foretinib; first compound 0.2 µM) | relative viability (Veliparib + Foretinib; first compound 0.6325 µM) | relative viability (Veliparib + Foretinib; first compound 2 µM) | relative viability ([2]; first compound 0.08 µM) | relative viability ([2]; first compound 0.253 µM) | relative viability ([2]; first compound 0.8 µM) | relative viability ([2]; first compound 2.53 µM) | relative viability ([2]; first compound 8 µM) | relative viability (Veliparib + Trametinib; first compound 0.02 µM) | relative viability (Veliparib + Trametinib; first compound 0.06325 µM) | relative viability (Veliparib + Trametinib; first compound 0.2 µM) | relative viability (Veliparib + Trametinib; first compound 0.6325 µM) | relative viability (Veliparib + Trametinib; first compound 2 µM)
HCC-827 | 0.429 | 0.395 | 0.277 | 0.297 | 0.275 | 1.08 | 1.01 | 0.984 | 1.03 | 1.02 | 1.01 | 0.929 | 1.05 | 0.896 | 1.04 | 0.59 | 0.514 | 0.529 | 0.504 | 0.516
NCI-H1734 |  | 0.492 | 0.547 | 0.536 | 0.382 | 0.797 | 0.85 | 0.886 | 0.832 | 0.836 |  | 1.03 | 0.91 | 0.898 | 0.725 |  | 0.613 | 0.792 | 0.631 | 0.72
NCI-H2087 | 0.93 | 0.941 | 0.989 | 0.983 | 0.653 | 1.04 | 1.04 | 0.999 | 1.16 | 1.08 | 0.863 | 0.775 | 0.898 | 0.754 | 0.606 | 0.198 | 0.205 | 0.215 | 0.168 | 0.154
LCLC-103H | 0.553 | 0.506 | 0.62 | 0.539 | 0.392 | 0.712 | 0.711 | 0.95 | 0.701 | 0.767 | 0.982 | 0.998 | 1.11 | 1 | 1.06 | 0.764 | 0.606 | 0.668 | 0.74 | 0.718
NCI-H1299 |  |  |  |  |  | 1.16 | 1.04 | 1.05 | 1.04 | 1.08 | 0.994 | 1.06 | 1.04 | 1.03 | 1.03 |  |  |  |  | 
RERF-LC-KJ | 0.839 | 0.867 | 0.761 | 0.829 | 0.751 | 0.881 | 0.807 | 0.879 | 0.888 | 0.889 | 1.08 | 1.13 | 1.11 | 1.13 | 1.06 | 0.938 | 0.822 | 0.899 | 0.845 | 0.858
PC-3 [JPC-3] | 0.986 | 0.974 | 1.06 | 1.13 | 1.03 | 1.01 | 1.06 | 0.968 | 0.975 | 0.983 | 0.808 | 0.814 | 0.833 | 0.817 | 0.854 | 0.596 |  | 0.749 | 0.685 | 0.682
NCI-H2170 | 0.456 | 0.687 | 0.711 | 0.69 | 0.541 | 0.977 | 1 | 0.963 | 0.942 | 1.03 |  |  |  |  |  | 0.872 | 1.02 | 1.01 | 0.901 | 0.935
EBC-1 |  |  |  |  |  | 0.0919 | 0.11 | 0.12 | 0.12 | 0.108 | 0.574 | 0.496 | 0.532 | 0.54 | 0.44 |  |  |  |  | 
ABC-1 |  | 0.566 | 0.589 | 0.676 | 0.488 |  | 0.858 | 1.12 | 0.961 | 1.15 |  | 0.274 | 0.296 | 0.325 | 0.318 |  |  |  |  | 
NCI-H2342 | 0.297 | 0.321 | 0.305 | 0.304 | 0.313 | 1.16 | 1.05 | 1.06 | 1.01 | 0.903 |  |  |  |  |  | 0.76 | 0.81 | 0.701 | 0.742 | 0.736
NCI-H1703 |  |  |  |  |  |  |  | 0.42 | 0.321 | 0.355 | 0.322 | 0.403 | 0.327 | 0.32 | 0.26 |  |  |  |  | 
NCI-H522 |  | 0.904 | 1.12 | 0.781 | 0.765 |  |  |  |  |  |  |  |  |  |  | 0.716 | 0.608 | 0.805 | 0.771 | 1.01
NCI-H1563 | 0.435 | 0.485 | 0.436 | 0.433 | 0.399 | 0.845 | 0.917 | 1.03 | 0.918 | 1.05 | 0.788 | 0.916 | 0.95 | 0.839 | 0.69 |  |  |  |  | 
NCI-H358 |  | 0.152 | 0.192 | 0.157 | 0.126 | 0.723 | 0.647 | 0.623 | 0.625 | 0.573 |  |  |  |  |  | 0.0965 | 0.12 | 0.195 | 0.115 | 0.152
NCI-H1792 | 0.705 | 0.841 | 0.749 | 0.726 | 0.715 |  |  |  |  |  | 0.95 | 0.945 | 0.979 | 0.931 | 0.7 | 0.499 | 0.411 | 0.41 | 0.438 | 0.401
NCI-H1648 |  |  |  |  |  |  |  |  |  |  |  |  |  |  |  | 0.631 |  |  | 0.557 | 0.516
SW 900 | 0.541 | 0.556 | 0.628 | 0.629 | 0.334 |  |  | 0.905 | 0.781 | 0.945 |  |  |  |  |  |  | 0.75 | 0.938 | 0.621 | 0.828
NCI-H1395 | 0.394 | 0.381 | 0.431 | 0.446 | 0.35 | 0.956 | 0.898 | 0.957 | 0.795 | 0.806 |  |  |  |  |  | 0.995 | 0.96 | 0.924 | 0.899 | 0.857
IA-LM |  |  |  |  |  | 1.3 | 1.21 | 1.2 | 1.16 | 1.12 | 0.857 | 0.69 | 0.942 | 0.769 | 0.726 |  |  |  |  | 
NCI-H1793 |  | 0.354 | 0.382 | 0.4 | 0.412 | 0.652 | 0.608 | 0.814 | 0.747 | 0.794 |  |  |  |  |  | 0.476 | 0.417 | 0.474 | 0.361 | 0.465
A549 |  |  |  |  |  | 1.07 | 0.878 | 0.962 | 0.807 | 0.963 |  |  |  |  |  |  |  |  |  | 
LK-2 |  | 0.358 | 0.335 | 0.298 | 0.293 |  | 1.26 | 1.32 | 1.13 | 1.15 |  |  |  |  |  | 0.773 | 0.773 | 0.788 | 0.763 | 0.766
HCC-44 |  |  |  |  |  |  |  |  |  |  | 0.845 | 0.912 | 0.897 | 0.914 | 0.907 | 1.07 | 0.938 | 1.14 | 1.04 | 1.06
